Source: US20240208992A1, “MACROCYCLES AS CFTR MODULATORS” (Idorsia Pharmaceuticals Ltd, priority 2021, published 2024)

Target: human F508del-CFTR (Homo sapiens, UniProt P13569, DEL508-508)
Assay: F508del-CFTR cell surface expression (corrector activity), DiscoveRx ß-galactosidase complementation chemiluminescence assay in recombinant U2OS cell line;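 further: U2OS cells co-expressing ProLink-tagged F508del-CFTR and a membrane-anchored enzyme acceptor, where more surface CFTR restores β-galactosidase activity measured by chemiluminescence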
Conditions: for EC50: EC50, F508del-CFTR cell surface expression; for Emax: U2OS
[1] = U2OS cells, 16h compound incubation, geomean values
[2] = in relation to Emax of corrector lumacaftor (=100%), arithmetic mean values
[3] = U2OS cells, 16h compound incubation, geomean of several measurements
[4] = in relation to the Emax of the corrector lumacaftor (=100%), U2OS cells, 16h compound incubation, arithmetic mean

Chain of human F508del-CFTR (P13569 with tags, fused parts or gaps DEL508-508): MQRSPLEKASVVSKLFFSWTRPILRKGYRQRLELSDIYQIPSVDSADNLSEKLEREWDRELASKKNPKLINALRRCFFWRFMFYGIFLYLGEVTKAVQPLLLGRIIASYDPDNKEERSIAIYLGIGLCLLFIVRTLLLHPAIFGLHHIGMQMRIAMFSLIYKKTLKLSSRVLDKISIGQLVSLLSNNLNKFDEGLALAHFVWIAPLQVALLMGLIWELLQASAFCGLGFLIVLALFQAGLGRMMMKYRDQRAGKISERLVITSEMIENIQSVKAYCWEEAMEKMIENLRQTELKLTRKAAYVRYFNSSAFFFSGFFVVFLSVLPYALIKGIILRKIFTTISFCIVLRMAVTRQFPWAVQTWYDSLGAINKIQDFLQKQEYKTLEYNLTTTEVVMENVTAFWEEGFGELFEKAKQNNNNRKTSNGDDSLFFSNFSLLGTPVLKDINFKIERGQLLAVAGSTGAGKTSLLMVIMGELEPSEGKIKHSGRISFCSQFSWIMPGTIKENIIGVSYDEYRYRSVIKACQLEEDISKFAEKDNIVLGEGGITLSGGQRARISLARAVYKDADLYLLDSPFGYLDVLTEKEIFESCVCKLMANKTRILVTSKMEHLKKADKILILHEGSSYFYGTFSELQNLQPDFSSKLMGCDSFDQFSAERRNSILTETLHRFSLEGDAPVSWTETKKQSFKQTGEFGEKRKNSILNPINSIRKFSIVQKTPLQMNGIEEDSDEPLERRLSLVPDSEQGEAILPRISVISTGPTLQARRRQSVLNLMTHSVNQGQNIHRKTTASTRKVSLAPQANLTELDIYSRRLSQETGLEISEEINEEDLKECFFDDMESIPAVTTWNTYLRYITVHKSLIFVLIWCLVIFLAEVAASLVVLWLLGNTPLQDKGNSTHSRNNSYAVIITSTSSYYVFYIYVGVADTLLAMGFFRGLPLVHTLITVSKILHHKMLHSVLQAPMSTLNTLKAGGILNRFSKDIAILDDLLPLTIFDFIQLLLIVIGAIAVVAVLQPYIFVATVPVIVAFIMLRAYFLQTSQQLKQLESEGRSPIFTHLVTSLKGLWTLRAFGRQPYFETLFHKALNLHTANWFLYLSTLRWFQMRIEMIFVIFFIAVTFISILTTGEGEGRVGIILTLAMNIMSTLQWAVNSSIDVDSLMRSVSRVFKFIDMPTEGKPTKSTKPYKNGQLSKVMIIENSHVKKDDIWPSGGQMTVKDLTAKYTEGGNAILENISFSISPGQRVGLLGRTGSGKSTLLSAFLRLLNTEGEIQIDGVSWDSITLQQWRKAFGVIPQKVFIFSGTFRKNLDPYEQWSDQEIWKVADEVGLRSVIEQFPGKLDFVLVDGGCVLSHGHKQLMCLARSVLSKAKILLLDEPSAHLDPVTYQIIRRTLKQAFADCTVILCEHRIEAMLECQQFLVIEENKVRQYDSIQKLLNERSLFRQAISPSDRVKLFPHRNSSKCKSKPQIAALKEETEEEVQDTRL

Row | SMILES | EC50 [1] | Emax [2] | EC50 [3] | Emax [4] | also measured
1 | CC(C)C[C@H]1C(=O)N2CCOC[C@@H]2C(=O)N[C@H](Cc2ccccc2)COc2ccc3ccccc3c2C(=O)N[C@H](C(=O)NCCc2cccc(C#N)c2)CC(=O)N1C [Example 759, (4aR,7R,18S,22S)-7-Benzyl-N-(3-cyanophenethyl)-22-isobutyl-21-methyl-5,16,20,23-tetraoxo-1,2,4,4a,5,6,7,8,16,17,18,19,20,21,22,23-hexadecahydronaphtho[1,2-p][1,4]oxazino[3,4-f][1]oxa[4,7,10,14]tetraazacycloheptadecine-18-carboxamide] | 296 nM | 131% | – | – | –
2 | COc1nccc2c1C(=O)N[C@H](C(=O)NCCCOC(F)F)CC(=O)N(C)[C@@H](CC(C)C)C(=O)N1CCCC[C@@H]1C(=O)N[C@H](Cc1ccccc1)CO2 [Example 850, (7S,11S,17aR,20R)-20-benzyl-N-(3-(difluoromethoxy)propyl)-11-isobutyl-4-methoxy-10-methyl-5,9,12,18-tetraoxo-5,6,7,8,9,10,11,12,15,16,17,17a,18,19,20,21-hexadecahydro-14H-dipyrido[2,1-f:3′,4′-p][1]oxa[4,7,10,14]tetraazacycloheptadecine-7-carboxamide] | – | – | 1150 nM | 224% | –
3 | Cc1oncc1CCNC(=O)[C@@H]1CC(=O)N(C)[C@@H](CC(C)C)C(=O)N2CCCC[C@@H]2C(=O)N[C@H](Cc2ccccc2)COc2cnc3ccccc3c2C(=O)N1 [Example 82, (9S,13S,19aR,22R)-22-benzyl-13-isobutyl-12-methyl-N-(2-(5-methylisoxazol-4-yl)ethyl)-7,11,14,20-tetraoxo-7,8,9,10,11,12,13,14,17,18,19,19a,20,21,22,23-hexadecahydro-16H-pyrido[2′,1′:6,7][1]oxa[4,7,10,14]tetraazacycloheptadecino[17,16-c]quinoline-9-carboxamide] | – | – | – | – | EC50 (U2OS cell line, 16h compound incubation, geomean values): 598 nM; Emax (in relation to the Emax of the corrector lumacaftor (=100%), U2OS cell line, 16h compound incubation, arithmetic mean values): 246%
4 | COc1cc2c(cc1OC)C(=O)N[C@H](C(=O)NCCc1ccc3c(c1)OCC3)CC(=O)N(C)[C@@H](CC(C)C)C(=O)N(CCC1CCCCC1)CC(=O)N[C@H](Cc1ccccc1)CO2 [Example 597, (3R,9S,13S)-3-benzyl-7-(2-cyclohexylethyl)-N-(2-(2,3-dihydrobenzofuran-6-yl)ethyl)-9-isobutyl-17,18-dimethoxy-10-methyl-5,8,11,15-tetraoxo-2,3,4,5,6,7,8,9,10,11,12,13,14,15-tetradecahydrobenzo[p][1]oxa[4,7,10,14]tetraazacycloheptadecine-13-carboxamide] | 168 nM | 211% | – | – | –
5 | COc1cc(CCNC(=O)[C@@H]2CC(=O)N(C)[C@@H](CC(C)C)C(=O)N(C)[C@H](CC(F)F)C(=O)N[C@H](Cc3ccccc3)COc3ccc4cnc(C)cc4c3C(=O)N2)on1 [Example 931, (3S,7S,10R,13R)-13-benzyl-10-(2,2-difluoroethyl)-7-isobutyl-N-(2-(3-methoxyisoxazol-5-yl)ethyl)-6,9,20-trimethyl-1,5,8,11-tetraoxo-1,2,3,4,5,6,7,8,9,10,11,12,13,14-tetradecahydro-[1]oxa[4,7,10,14]tetraazacycloheptadecino[16,17-f]isoquinoline-3-carboxamide] | – | – | 298 nM | 507% | –
6 | Cc1nc2ccc3c(c2o1)C(=O)N[C@H](C(=O)NCCc1c(F)cccc1F)CC(=O)N(C)[C@@H](CC(C)C)C(=O)N1CCCC[C@@H]1C(=O)N[C@H](Cc1ccccc1)CO3 [Example 482, (8S,12S,18aR,21R)-21-benzyl-N-(2,6-difluorophenethyl)-12-isobutyl-4,11-dimethyl-6,10,13,19-tetraoxo-6,7,8,9,10,11,12,13,16,17,18,18a,19,20,21,22-hexadecahydro-15H-oxazolo[4′,5′:5,6]benzo[1,2-p]pyrido[2,1-f][1]oxa[4,7,10,14]tetraazacycloheptadecine-8-carboxamide] | 414 nM | 247% | – | – | –
